Measured values: US20220236187A1, “SYSTEM AND METHOD FOR REAL-TIME MULTICOLOR SHORTWAVE INFRARED FLUORESCENCE IMAGING” (HELMHOLTZ ZENTRUM MÜNCHEN - DEUTSCHES FORSCHUNGSZENTRUM FÜR …, priority 2019, published 2022)
Where two headings read alike, the source gives them in different places.

Columns and labels:
[1] = stated as established property; cited from earlier work
[2] = Excitation-multiplexed SWIR imaging in mice, probe distribution (Example 9); type: in vivo; details: 80 minutes after i.p. 10 micelles and i.v. 3 micelles and ICG; top view
From the text: To perform excitation multiplexing in the SWIR, a custom SWIR imaging configuration with three lasers and an InGaAs detector was built (FIG. 13B). With laser lines at 785 nm, 980 nm, and 1064 nm, tailored excitation could uniquely excite three fluorophores. Emission is detected in a color-blind fashion using identical filters and settings in the SWIR, providing high-resolution images. To enable this process to occur in real-time, we constructed an electronic triggering system which is coupled to both the camera and laser excitation sources. […]
Physiological properties such as heart-rate, respiratory rate, thermoregulation, metabolism, and the function of the central nervous system, are highly impacted by anesthesia. […] Due to frame rates which are faster than macroscopic movements in animals, the heart rate and respiratory rate in awake animals can be quantified. […] The method allows physiology to be monitored with minimal perturbation of the animal's usual environment. […] The real-time collection can be visualized by observing close time-points in which a continuous movement is monitored without visual aberrations (FIG. 16A). In addition to assessing natural physiology, these tools foreshadow more complex experiments in which the location of multiple probes could be monitored over long periods of time, non-invasively and without the need for anesthesia. […]

[3] = Brightness comparison of micelle-formulated dyes and ICG in water, fetal bovine serum and sheep blood; type: physicochemical; details: dyes in micelles, ICG free
From the text: (§1) FIG. 21: Brightness comparisons in imaging configuration. a-c) Images upon 785 (33 mWcm^−2), 892 (54 mWcm^−2), and 968 (77 mWcm^−2) nm ex. and LP1000 nm detection (variable exposure time (ET) and frame rate) of capillaries containing equal moles of dyes 4-6, 9, 10 (lipid formulations) and benchmark dyes ICG (free) and MeOFlav7 (abbreviated MF7) (lipid formulation) when dissolved in water (a), fetal bovine serum (FBS) (b), or sheep blood (c). […] (e) and after injection of JuloChrom5 (10) (50 nmol) upon 982 nm (104 mWcm^−2) ex. (f). Collect: LP1000 nm, 2.0 ms ET, 150 fps (for 2-channel collection, see SI for images from all channels).
Next, to more closely approximate in vivo performance, each chromenylium or flavylium dye were formulated into water-soluble PEG-phospholipid micelles, a biocompatible nanomaterial for delivery. Brightness of solutions with equal dye concentration (flavylium and chromenylium dyes in micelles; ICG) were evaluated when dispersed in water (e.g., FIG. 20a), fetal bovine serum (FBS) (e.g., FIG. 20b), and sheep blood (e.g., FIG. 20c).
Results changed drastically compared to those in the organic solvent experiment, likely due to variable amounts of aggregation or interactions within the micelles and/or biological media. […]

[4] = Two-color SWIR lymphatic imaging of a narcotized mouse (Example 2, Demonstration III); type: in vivo; details: injected intradermally into footpads and base of tail; after 30 min, 40 min
From the text: The FIGS. 9A, 9B and 9C show merged frames representing the lymphatic system of a narcotized mouse in two-color real-time acquisition. With detector exposure time of 20 ms, a frame rate of 21 fps is achieved with the developed system. […] Then, Julo 7 micelles have been injected intravenously. The lymphatic functional imaging is later enhanced by the assignment of two distinct colors.
Light Source (785 nm laser & 1064 nm laser sequentially triggered, pulse length=21 ms)→Collimator→Mirror→1100 nm Short-pass Filter→Engineered Diffuser→Sample. The arrows represent the light path. Accordingly, the light path has been set up as follows: from Light Source (785 nm laser & 1064 nm laser sequentially triggered, pulse length=21 ms) to Collimator to Mirror to 1100 nm Short-pass Filter to Engineered Diffuser to Sample.
Sample→3xf=500 mm C-Coated lenses→Silver Mirror→1000 nm Long-pass Filter→2xf=200 mm C-coated lenses→InGaAs Detector. The arrows represent the light path. Accordingly, the light path has been set up as follows: from Sample to 3xf=500 mm C-Coated lenses to Silver Mirror to 1000 nm Long-pass Filter to 2xf=200 mm C-coated lenses to InGaAs Detector.
Sample: ICG (aqueous, 13 nmol intradermally [footpads and base of tail]) and Julo7 (micelles, 70 nmol intravenously).

[5] = In vivo brightness comparison of JuloChrom5 (10) and ICG in a single mouse; parameters: species or system mice; details: compared to the PEG-coated micelles
From the text: as §1
To most closely assess the brightness performance for SWIR imaging, an in vivo comparative experiment between the highest performing chromenylium dye, JuloChrom5 (10) and ICG was designed. To note, while many SWIR imaging agents have been compared to the benchmark dye, ICG, these comparisons are often difficult due to the diverse photophysical and biological properties of different emitters. In this case, the in vivo comparison is complicated by differing biodistribution properties of the two dyes. […] Normalizing each acquisition to the injection start time, the signal over time over the whole mouse (yellow), a section of the vasculature (red), and the liver (black) were quantified. […]

[6] = Brightness comparison in organic solvent in the excitation-multiplexed SWIR imaging configuration; type: physicochemical; details: 0.25 μM, 785/892/968 nm excitation, 1000 nm LP
From the text: While photophysical characterization can be essential for understanding chromophore properties, when moving to an in vivo system, there are many additional parameters that might contribute to a dye's performance, including delivery strategy, interaction with biological tissues, and the excitation and detection parameters of the imaging configuration. To begin to understand the translation to in vivo experiments, an excitation-multiplexed SWIR imaging configuration was used to compare emission of the fluorophores when excited at relevant wavelengths. The imaging set-up includes excitation lasers that correspond to each channel (e.g., i-iv, FIG. 17a) (785, 892, and 968, 1065 nm) with irradiation scaled to the approved values, as outlined by the International Commission on Non-Ionizing Radiation Protection (ICNIRP) guidelines. The guidelines indicate that within the spectral region of interest (˜785 nm-1065 nm) higher photon doses are tolerated as the wavelength is increased. […] The excitation lasers are diffused and delivered uniformly to the biological sample. […]
To compare brightness of the chromenylium dyes in vitro, dyes 5, 6, 9 and 10 were dissolved in organic solvent (DCM) at 0.25 μM, and measured the emission, with 1000 nm longpass (LP) filtering on an InGaAs camera upon sequential excitation with 785, 892, and 968 nm lasers. […]

[7] = value used as reference for relative measurements; cited from earlier work
[8] = value used as reference for relative measurements; cited from earlier work; remark: listed apart in the source

Row | Structure (SMILES) | clearance of ICG [1] | location of probe in awake mouse [2] | change of brightness in FBS and blood compared to water [3] | SWIR brightness in water, FBS and blood ([3]; equal dye concentration) | conduction through the lymphatic vessels [4] | hepatic clearance time [5] | ranking of SWIR emission per excitation channel [6] | ΦF of reference standard IR-26 [7] [%] | ΦF of reference standard IR-26 [8] [%]
1 | CC1(C)C(/C=C/C=C/C=C/C=C2\N(CCCCS(=O)(=O)O)c3ccc4ccccc4c3C2(C)C)=[N+](CCCCS(=O)(=O)[O-])c2ccc3ccccc3c21 [ICG, indocyanine green] | clears efficiently and exclusively from the liver | exclusively in the liver | increase in brightness | brightest SWIR emitter upon 785 nm excitation in both FBS and blood | efficiently conducted through the lymphatic vessels | faster hepatic clearance time | best performers in channels i and ii |  | 
2 | ClC1=C(/C=C/c2cc(-c3ccccc3)[s+]c3ccccc23)CCC/C1=C\C=C1/C=C(c2ccccc2)Sc2ccccc21.[O-][Cl+3]([O-])([O-])[O-] [IR-26] |  |  |  |  |  |  |  | 0.05 | 0.05
